Data published in PubChem BioAssay (NCI).
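Test compounds were applied to cells in 96-well plates for 48 hours at 5 doses. TGI denotes the concentration required for complete inhibition of growth.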

Legend:
Assay in all cases: NCI tumour cell line growth inhibition, 48 h
[1] = test system: 786-0 renal
[2] = test system: A549 NSCLC
[3] = test system: ACHN renal
[4] = test system: CAKI-1 renal
[5] = test system: CCRF-CEM leukemia
[6] = test system: COLO 205 colon
[7] = test system: DLD-1 colon
[8] = test system: DMS 114 small cell lung
[9] = test system: DMS 273 small cell lung
[10] = test system: EKVX NSCLC
[11] = test system: HCC-2998 colon
[12] = test system: HCT-116 colon
[13] = test system: HCT-15 colon
[14] = test system: HL-60(TB) leukemia
[15] = test system: HOP-18 NSCLC
[16] = test system: HOP-62 NSCLC
[17] = test system: HT29 colon
[18] = test system: IGROV1 ovarian
[19] = test system: K-562 leukemia
[20] = test system: KM12 colon
[21] = test system: KM20L2 colon
[22] = test system: LOX IMVI melanoma
[23] = test system: LXFL 529 NSCLC
[24] = test system: M14 melanoma
[25] = test system: M19-MEL melanoma
[26] = test system: MALME-3M melanoma
[27] = test system: MOLT-4 leukemia
[28] = test system: NCI-H226 lung
[29] = test system: NCI-H23 lung
[30] = test system: NCI-H460 lung
[31] = test system: NCI-H522 lung
[32] = test system: OVCAR-3 ovarian
[33] = test system: OVCAR-4 ovarian
[34] = test system: OVCAR-5 ovarian
[35] = test system: OVCAR-8 ovarian
[36] = test system: RPMI-8226 leukemia
[37] = test system: RXF 393 renal
[38] = test system: RXF-631 renal
[39] = test system: SF-268 CNS
[40] = test system: SF-295 CNS
[41] = test system: SF-539 CNS
[42] = test system: SK-MEL-2 melanoma
[43] = test system: SK-MEL-28 melanoma
[44] = test system: SK-OV-3 ovarian
[45] = test system: SN12C renal
[46] = test system: SNB-19 CNS
[47] = test system: SNB-75 CNS
[48] = test system: SNB-78 CNS
[49] = test system: SR leukemia
[50] = test system: SW-620 colon
[51] = test system: U251 CNS
[52] = test system: UACC-257 melanoma
[53] = test system: UACC-62 melanoma
[54] = test system: UO-31 renal
[55] = test system: XF 498 CNS
[56] = test system: A498 renal
[57] = test system: HOP-92 NSCLC
[58] = test system: MCF7 breast
[59] = test system: NCI/ADR-RES ovarian
[60] = test system: P388 leukemia
[61] = test system: P388/ADR leukemia
[62] = test system: SK-MEL-5 melanoma
[63] = test system: SN12K1 renal
[64] = test system: TK-10 renal

Structure (SMILES): CCC1=CCN(c2cc(C)ccn2)OC1c1ccccc1 (configuration not stated)
- TGI [1]: > 100 µM
- TGI [2]: > 100 µM
- TGI [3]: > 100 µM
- TGI [4]: > 100 µM
- TGI [5]: > 100 µM
- TGI [6]: > 100 µM
- TGI [7]: > 100 µM
- TGI [8]: > 100 µM
- TGI [9]: > 100 µM
- TGI [10]: > 100 µM
- TGI [11]: 81.7 µM
- TGI [12]: > 100 µM
- TGI [13]: > 100 µM
- TGI [14]: 41.8 µM
- TGI [15]: > 100 µM
- TGI [16]: > 100 µM
- TGI [17]: > 100 µM
- TGI [18]: > 100 µM
- TGI [19]: > 100 µM
- TGI [20]: > 100 µM
- TGI [21]: > 100 µM
- TGI [22]: > 100 µM
- TGI [23]: > 100 µM
- TGI [24]: > 100 µM
- TGI [25]: > 100 µM
- TGI [26]: 80.8 µM
- TGI [27]: > 100 µM
- TGI [28]: > 100 µM
- TGI [29]: > 100 µM
- TGI [30]: > 100 µM
- TGI [31]: 62.1 µM
- TGI [32]: > 100 µM
- TGI [33]: > 100 µM
- TGI [34]: > 100 µM
- TGI [35]: > 100 µM
- TGI [36]: 67.1 µM
- TGI [37]: 68 µM
- TGI [38]: 73.1 µM
- TGI [39]: > 100 µM
- TGI [40]: > 100 µM
- TGI [41]: > 100 µM
- TGI [42]: 43.7 µM
- TGI [43]: 77.1 µM
- TGI [44]: > 100 µM
- TGI [45]: > 100 µM
- TGI [46]: > 100 µM
- TGI [47]: > 100 µM
- TGI [48]: > 100 µM
- TGI [49]: 55.7 µM
- TGI [50]: > 100 µM
- TGI [51]: 46.2 µM
- TGI [52]: > 100 µM
- TGI [53]: > 100 µM
- TGI [54]: > 100 µM
- TGI [55]: 71.2 µM

Structure (SMILES): CCOC(=O)/C=C/c1c(C)[nH]c(=O)[nH]c1=O
- TGI [56]: > 250 µM
- TGI [2]: > 250 µM
- TGI [4]: > 234 µM
- TGI [5]: > 250 µM
- TGI [6]: > 250 µM
- TGI [7]: > 250 µM
- TGI [8]: > 250 µM
- TGI [9]: > 250 µM
- TGI [10]: > 250 µM
- TGI [11]: > 250 µM
- TGI [12]: > 250 µM
- TGI [13]: > 250 µM
- TGI [14]: > 250 µM
- TGI [15]: > 250 µM
- TGI [16]: > 250 µM
- TGI [57]: > 25 µM
- TGI [17]: > 250 µM
- TGI [18]: > 250 µM
- TGI [19]: > 250 µM
- TGI [20]: > 250 µM
- TGI [21]: > 250 µM
- TGI [22]: > 250 µM
- TGI [25]: > 250 µM
- TGI [26]: > 250 µM
- TGI [58]: > 250 µM
- TGI [27]: > 250 µM
- TGI [28]: > 250 µM
- TGI [29]: > 250 µM
- TGI [30]: > 250 µM
- TGI [31]: > 250 µM
- TGI [59]: > 250 µM
- TGI [32]: > 250 µM
- TGI [33]: > 158 µM
- TGI [34]: > 250 µM
- TGI [35]: > 250 µM
- TGI [60]: > 141 µM
- TGI [61]: > 158 µM
- TGI [36]: > 250 µM
- TGI [37]: > 250 µM
- TGI [39]: > 250 µM
- TGI [40]: > 250 µM
- TGI [41]: > 250 µM
- TGI [42]: > 250 µM
- TGI [43]: > 250 µM
- TGI [62]: > 250 µM
- TGI [44]: > 141 µM
- TGI [45]: > 250 µM
- TGI [63]: > 250 µM
- TGI [46]: > 250 µM
- TGI [47]: > 250 µM
- TGI [48]: > 250 µM
- TGI [50]: > 250 µM
- TGI [51]: > 250 µM
- TGI [52]: > 250 µM
- TGI [53]: > 250 µM
- TGI [54]: > 250 µM
- TGI [55]: > 250 µM

Structure (SMILES): C1=Cc2nc1c(-c1ccccc1)c1ccc([nH]1)c(-c1ccccc1)c1nc(c(-c3ccccc3)c3ccc([nH]3)c2-c2ccccc2)C=C1
- TGI [1]: > 100 µM
- TGI [56]: > 100 µM
- TGI [2]: > 100 µM
- TGI [3]: > 100 µM
- TGI [4]: > 100 µM
- TGI [5]: > 100 µM
- TGI [6]: > 100 µM
- TGI [7]: > 100 µM
- TGI [8]: > 100 µM
- TGI [9]: > 100 µM
- TGI [10]: > 100 µM
- TGI [11]: > 100 µM
- TGI [12]: > 100 µM
- TGI [13]: > 100 µM
- TGI [14]: > 100 µM
- TGI [15]: > 100 µM
- TGI [16]: > 100 µM
- TGI [57]: > 100 µM
- TGI [17]: > 100 µM
- TGI [18]: > 100 µM
- TGI [19]: > 100 µM
- TGI [20]: > 100 µM
- TGI [21]: > 100 µM
- TGI [22]: > 100 µM
- TGI [23]: > 100 µM
- TGI [24]: > 100 µM
- TGI [25]: > 100 µM
- TGI [26]: > 100 µM
- TGI [27]: > 100 µM
- TGI [28]: > 100 µM
- TGI [29]: > 100 µM
- TGI [30]: > 100 µM
- TGI [31]: > 100 µM
- TGI [32]: > 100 µM
- TGI [33]: > 100 µM
- TGI [34]: > 100 µM
- TGI [35]: > 100 µM
- TGI [36]: > 100 µM
- TGI [38]: > 100 µM
- TGI [39]: > 100 µM
- TGI [40]: > 100 µM
- TGI [41]: > 100 µM
- TGI [42]: > 100 µM
- TGI [43]: > 100 µM
- TGI [62]: > 100 µM
- TGI [44]: > 100 µM
- TGI [45]: > 100 µM
- TGI [46]: > 100 µM
- TGI [47]: > 100 µM
- TGI [48]: > 100 µM
- TGI [49]: > 100 µM
- TGI [50]: > 100 µM
- TGI [64]: > 100 µM
- TGI [51]: > 100 µM
- TGI [52]: > 100 µM
- TGI [53]: > 100 µM
- TGI [54]: > 100 µM

Structure (SMILES): CN/N=C(/c1nc2ccc([N+](=O)[O-])cc2[nH]c1=O)C(O)c1ccc(C(O)/C(=N\NC)c2nc3ccc([N+](=O)[O-])cc3[nH]c2=O)cc1 (configuration not stated)
- TGI [1]: > 100 µM
- TGI [56]: > 100 µM
- TGI [2]: > 100 µM
- TGI [3]: > 100 µM
- TGI [4]: > 100 µM
- TGI [5]: > 100 µM
- TGI [6]: > 100 µM
- TGI [7]: > 100 µM
- TGI [8]: > 100 µM
- TGI [9]: > 100 µM
- TGI [10]: > 100 µM
- TGI [11]: 95.1 µM
- TGI [12]: > 100 µM
- TGI [13]: > 100 µM
- TGI [14]: 53.5 µM
- TGI [16]: > 100 µM
- TGI [57]: > 100 µM
- TGI [17]: > 100 µM
- TGI [18]: > 100 µM
- TGI [19]: > 100 µM
- TGI [20]: > 100 µM
- TGI [21]: > 100 µM
- TGI [22]: > 100 µM
- TGI [23]: > 100 µM
- TGI [24]: > 100 µM
- TGI [25]: > 100 µM
- TGI [26]: > 100 µM
- TGI [27]: > 100 µM
- TGI [28]: > 100 µM
- TGI [29]: > 100 µM
- TGI [30]: > 100 µM
- TGI [32]: > 100 µM
- TGI [34]: > 100 µM
- TGI [35]: > 100 µM
- TGI [36]: > 100 µM
- TGI [37]: > 100 µM
- TGI [38]: > 100 µM
- TGI [39]: > 100 µM
- TGI [40]: > 100 µM
- TGI [41]: > 100 µM
- TGI [42]: > 100 µM
- TGI [43]: > 100 µM
- TGI [62]: > 100 µM
- TGI [44]: > 100 µM
- TGI [46]: > 100 µM
- TGI [47]: > 100 µM
- TGI [48]: > 100 µM
- TGI [50]: > 100 µM
- TGI [64]: > 100 µM
- TGI [51]: > 100 µM
- TGI [52]: > 100 µM
- TGI [53]: > 100 µM
- TGI [54]: > 100 µM
